For the test, the target named is T1, TRPC5:C5 channels (hTRPC5) (Homo sapiens, UniProt Q9UL62).
T1 construct: expressed in transfected cells
T1 sequence (Q9UL62 1-973): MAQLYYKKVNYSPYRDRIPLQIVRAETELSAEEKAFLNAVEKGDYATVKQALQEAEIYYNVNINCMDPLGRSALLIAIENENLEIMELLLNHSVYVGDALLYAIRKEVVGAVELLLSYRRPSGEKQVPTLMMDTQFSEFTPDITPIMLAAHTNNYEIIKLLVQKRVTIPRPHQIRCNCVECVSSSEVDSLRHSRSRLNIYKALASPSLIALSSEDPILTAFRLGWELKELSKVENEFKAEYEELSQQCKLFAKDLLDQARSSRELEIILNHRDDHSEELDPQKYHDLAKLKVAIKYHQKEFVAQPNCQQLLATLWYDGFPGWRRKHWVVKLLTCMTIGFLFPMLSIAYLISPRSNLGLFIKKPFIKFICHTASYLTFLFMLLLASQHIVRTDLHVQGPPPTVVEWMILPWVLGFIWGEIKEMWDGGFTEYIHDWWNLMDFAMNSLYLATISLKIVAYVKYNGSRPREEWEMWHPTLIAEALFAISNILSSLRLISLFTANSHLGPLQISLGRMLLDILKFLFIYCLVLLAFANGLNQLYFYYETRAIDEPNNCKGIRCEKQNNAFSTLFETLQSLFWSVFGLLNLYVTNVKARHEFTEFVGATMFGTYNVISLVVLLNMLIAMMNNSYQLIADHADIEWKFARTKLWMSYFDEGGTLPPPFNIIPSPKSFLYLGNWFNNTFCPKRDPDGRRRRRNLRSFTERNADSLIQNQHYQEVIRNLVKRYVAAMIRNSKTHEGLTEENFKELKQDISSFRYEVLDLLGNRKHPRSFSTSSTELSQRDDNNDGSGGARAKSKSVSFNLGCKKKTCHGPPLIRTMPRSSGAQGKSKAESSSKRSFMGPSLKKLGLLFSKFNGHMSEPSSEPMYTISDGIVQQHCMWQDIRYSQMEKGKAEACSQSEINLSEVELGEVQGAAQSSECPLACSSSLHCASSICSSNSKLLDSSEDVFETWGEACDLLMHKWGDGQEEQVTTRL
Nature of the test: [Ca2+]i measurement (Fura-2, FlexStation) in (Tet+) HEK T-REx cells expressing hTRPC5. Format: cell-based. As to the method: HEK T‐REx™ cell line was transfected with TRPC5‐SYFP2 or TRPC4‐SYFP2 using FuGENE® HD transfection reagent. After 48 hr, cells were put under antibiotic selection using 400 μg·ml^−1 zeocin and 10 μg·ml^−1 blasticidin S (Invivogen, San Diego, California, USA). Medium changes were carried out regularly to remove dead cells. HEK T‐REx cells expressing tetracycline‐inducible human TRPC5, TRPC4–C1, and TRPC5–C1 were created as described previously (Akbulut et al., 2015; Ludlow et al., 2017; Rubaiy, Ludlow, Henrot, et al., 2017). TRPC5–C1 and TRPC4–C1 concatemers allow expression of functional channels with defined 2:2 stoichiometry that display ion permeability and current–voltage relationships distinct from those of homomeric TRPC4:C4 or TRPC5:C5 channels and consistent with those obtained upon co‐expression of TRPC1 with TRPC4 or TRPC5 (Ludlow et al., 2017; Rubaiy, Ludlow, Bon, & Beech, 2017; Rubaiy, Ludlow, Henrot, et al., 2017). Cells were cultured in DMEM‐F12 GlutaMAX (Invitrogen, Paisley, UK) containing 10% FBS (Sigma‐Aldrich, Gillingham, UK), with the addition of blasticidin (10 μg·ml^−1) and zeocin (400 μg·ml^−1) to maintain the stable incorporation of the tetracycline repressor and the channel of interest, respectively. Expression of proteins was induced by the addition of tetracycline (1 μg·ml^−1, 24 hr). Cells were maintained in a humidified incubator with 5% CO2 at 37°C. HEK 293 cells stably expressing tetracycline‐regulated human http://www.guidetopharmacology.org/GRAC/ObjectDisplayForward?objectId=494 were prepared similarly and have also been described previously (McHugh, Flemming, Xu, Perraud, & Beech, 2003). For experiments using transient co‐expression of TRPC1 and TRPC5, HEK cells at 40–60% confluency were transfected with pIRES2‐AcGFP1 and pIRES2‐DsRed‐Express2 plasmids containing human TRPC1 and TRPC5, respectively, using Lipofectamine 3000 (ThermoFisher Scientific, Yokohama, Japan). All experiments using transient expression were performed within 48 hr after transfection. A498 cells were cultured in Minimum Essential Medium containing Earle's salts (ThermoFisher Scientific, Loughborough, UK), supplemented with 10% FBS and penicillin–streptomycin (100 units per ml^−1, 100 μg·ml^−1; ThermoFisher Scientific, Loughborough, UK). CHO cells stably expressing http://www.guidetopharmacology.org/GRAC/ObjectDisplayForward?objectId=510 were maintained in Ham's Nutrient Mixture F12 (ThermoFisher Scientific, Loughborough, UK) supplemented with 10% FBS, penicillin–streptomycin, and 1 mg·ml^−1 G418 (InvivoGen, San Diego, California, USA). For experiments using hTRPC3 and hTRPC6, WT HEK 293 cells were transfected with hTRPC3 (Naylor et al., 2016) or hTRPC6 (cloned into pcDNA3) using jetPRIME® transfection reagent (VWR, Lutterworth, UK). […]

The results in this text go back to PMC6811774, “Potent, selective, and subunit‐dependent activation of TRPC5 channels by a xanthine derivative” (British Journal of Pharmacology, 2019).

The EC50 is the concentration at which the effect is half-maximal.

Where “and” joins values, the source holds several entries; their conditions need not be identical. Identical values can stand only once. Like-named read-outs stand apart in the source and are kept apart here.

Take `Cn1c(=O)n(CCCO)c(=O)c2c1nc(Oc1ccc(Cl)c(OC(F)(F)F)c1)n2Cc1ccc(Cl)cc1` [AM237]: the “Concentration leading to a sustained increase in [Ca2+]i” value (cells overexpressing TRPC5 or TRPC5-SYFP2) is listed as not below 3 nM. Also, the 50% effective concentration (EC50) reads like this: (hTRPC5, response at 250–295 s vs baseline, read-out: EC50, activation (increase in [Ca2+]i)) 20 nM; (range over TRPC5 and TRPC5-SYFP2 experiments, read-out: EC50, TRPC5:C5 activation in [Ca2+]i assay (summary range)) 15 to 20 nM and 10 to 20 nM. Further, the “Hill slope, activation” value (hTRPC5 concentration–response curve) was 1.7.
